Experimental data taken from patent US8946226B2, “Use of CDK inhibitor for the treatment of glioma” (Nerviano Medical Sciences S.r.l., priority 2008, dated 2015).

Assays:
[1] = tested on: all glioma cell lines; test: Mode of action by Western blot analysis; format: cell-based; settings: independently from the status of Rb pathway
Description: (§1) Treated cells were lysed by adding SDS sample buffer (0.125M Tris-HCl pH6.8, 5% SDS). Samples were heated to 95° C. for 5 minutes and then sonicated using an Ultrasonic 2000 ARTEK. Lysed cells were centrifuged at 13,000 RPM for 10 minutes. Protein quantification was determined using BCA buffer (Pierce) and a BSA standard curve. 20 μg protein extract per well were loaded and separated by SDS-PAGE gel 7.5-10% (PAGE-PLUS 40% concentrate AMRESCO). The gel was blotted onto nitrocellulose filters (Hybond Amersham) in a buffer containing 25 mM Tris HCl pH 8.3, 192 mM Glycine and 20% methanol. The filters were saturated in 5% low-fat milk in TBS containing 0.1% Tween 20 (TBS-T) for 2 hours at room temperature and than incubated overnight at 4° C. with the primary monoclonal followed by washes in TBS-T and incubation using a secondary anti mouse antibody. The bands were visualized using the “Super Signal West Pico” Pierce.

[2] = tested on: SF-539 cells; test: Mode of action by Western blot analysis; format: cell-based; settings: SF-539 cells treated for 6 hours, 3 μM, FIG. 2
Description: as §1

[3] = Levels of compound in brain and plasma by LC/MS/MS; format: in vivo, Han Wistar rats; settings: rat; for Brain levels: average
Description: The animals were sacrificed on day 6 at 2 and 6 hours after dosing. Brain and plasma were taken at the sacrifice time. Blood was put in heparinised plastic tubes, kept in ice-water bath, and then centrifuged (10 minutes, 1200 g at 4° C.). Brain and plasma samples were stored in a freezer at −80° C. until analysis. The levels of compound of formula (I) were analysed by LC/MS/MS.

[4] = tested on: U251; test: Analysis of BrdU incorporation (FACS); format: cell-based, human; settings: U251, 24 hour-treatment
Description: (§2) SF-268, SF-295, SF-539 and U251 cell lines were cultured in RPMI 1640 added with 10% FCS and 2 mM glutamine and U-87MG cell line was cultured in EMEM added with 10% FCS, […] and 1% NEAA. For all the experiments cells were seeded at the density of 1×10^4/cm^2, the day after treatment with the compound for the prescribed duration and then collected at the reported times.
(§3) BrdU (5-bromo-2′ deoxyuridine) was added to the cell culture at the final concentration of 30 μM for the last hour of a 24 hour-treatment. Cells were washed with PBS, fixed in 70% ethanol and stored at −20° C. At the moment of the analysis cells were centrifuged, washed with 1% FCS in PBS and DNA denaturated with HCl 2N for 20 minutes. After a wash in Na2B4O7 0.1M pH 8.5, cells were incubated with a solution of 0.5% Tween20 in PBS+1% FCS for 15 minutes and then centrifuged. The pellets were resuspended in 150 μl of a 1:10 diluted unconjugated anti-BrdU monoclonal antibody (Becton Dickinson) and incubated for 1 hour at room temperature. After a wash in PBS, the incubation with 0.5% Tween20 was repeated; then the secondary antibody was added (1:50 diluted FITC-conjugated goat anti mouse immunoglobulin (Jackson Lab.)). After one hour at room temperature the cells were rinsed again, counterstained with propidium iodide (2 μg/ml+12.5 μg/ml DNAse-free RNAse) overnight, then analyzed by FACS.

[5] = tested on: U251; test: Inhibition of cell proliferation (cellular ATP monitoring); format: cell-based; settings: Homo sapiens, U-251; U251, 72 hours
Description: as §2
(§4) Cells were washed and counted 72 hours after the treatment. Cell proliferation was determined by a cellular adenosine triphosphate monitoring system. Cell proliferation was compared to control cells. The concentration inhibiting cell proliferation by 50% (IC50) was calculated.

[6] = tested on: U87MG; test: as above; format: cell-based; settings: Homo sapiens, U-87 MG, 72 hours
Description: as §2, §4

[7] = tested on: SF268; test: as above; format: cell-based; settings: Homo sapiens, SF-268; SF268, 72 hours
Description: as §2, §4

[8] = tested on: SF539; test: as above; format: cell-based; settings: Homo sapiens, SF-539; SF539, 72 hours
Description: as §2, §4

[9] = tested on: SF295; test: as above; format: cell-based; settings: Homo sapiens, SF-295; SF295, 72 hours
Description: as §2, §4

[10] = tested on: U87MG; test: Analysis of BrdU incorporation (FACS); format: cell-based; settings: 24 hour-treatment
Description: as §2, §3

[11] = tested on: SF268; test: Analysis of BrdU incorporation (FACS); format: cell-based; settings: SF268, 24 hour-treatment
Description: as §2, §3

[12] = tested on: SF539; test: Analysis of BrdU incorporation (FACS); format: cell-based; settings: SF539, 24 hour-treatment
Description: as §2, §3

[13] = tested on: SF295; test: Analysis of BrdU incorporation (FACS); format: cell-based; settings: SF295, 24 hour-treatment
Description: as §2, §3

[14] = Radioactivity distribution in brain by autoradioluminography, plasma by LSC; format: in vivo, Sprague Dawley rats; settings: 14C-labelled, single oral 20 mg/kg as maleate salt, rat
Description: Animals were sacrificed 2, 6 and 24 hours after administration (2 animals at each selected time) and the radioactivity distribution of compound-related material was evaluated in intact brain, after excision. The autoradioluminography method was used to evaluate the quantitative radioactivity distribution in the brain.
The radioactivity distribution was also evaluated in blood and plasma collected from the animals after sacrifice. The radioactivity levels in blood and plasma were determined by Liquid Scintillation Counting (LSC).

[15] = tested on: U87MG; test: Acridine orange staining to evaluate autophagy (FACS); format: cell-based; settings: 3 μM
Description: as §2
(§5) During the last 15 minutes of incubation, acridine orange (1 μg/ml) was added to the cells that were then collected, washed with PBS and analyzed by FACS for their fluorescence emission. Acridine orange moves freely to cross biological membranes but, when in the cytoplasm and nucleolus, fluoresces bright green and dim red; in the acidic vacuoles generated by autophagy appears bright red.

[16] = tested on: SF268; test: as above; format: cell-based; settings: SF268, 3 μM
Description: as §2, §5

[17] = tested on: SF539; test: as above; format: cell-based; settings: SF539, 6 μM
Description: as §2, §5

[18] = tested on: SF295; test: as above; format: cell-based; settings: SF295, 3 μM
Description: as §2, §5

[19] = tested on: U251 cells; test: Efficacy on intracranially implanted glioma tumor model; format: in vivo, Athymic male nude mice; settings: 40 mg/kg bid OS, FIG. 3
Description: Animals that underwent surgical procedures were anesthetized following one of the above mentioned protocols, i.e. Ketamin, 80-100 mg/kg i.p.+Xilazin: 10 mg/kg i.p.; Isofluorane: 1.5-2%. Athymic male nude mice, aged 6-8 weeks were anesthetized, placed under the stereotaxic apparatus and gently fixed with ear bars and into the head holder. Skin of the head was cut longitudinally (parallel to ears) and skull of the mouse discovered. With the X and Y axis controller of the apparatus, bregma (interception between median sagittal and anterior coronal sutures to perform injection into the cerebral nuclei) and lambda (interception between median sagittal suture and posterior coronal suture to perform injection into the cerebellum) were identified as point 0. The following coordinates were set in the apparatus and the point of injection identified. With a microdrill a small hole was done in the desired point. Cells were aspirated with the Hamilton syringe (usually […]) just prior injection (a short mix of cells before aspiration was performed to avoid precipitation of cells). By pointing to the hole, Z axis was fixed to 0 and syringe gently inserted into the brain until reaching the right coordinate (−3.0 mm depth). U251 cells were injected at the speed of 1 μl per minute. […] After the end of the surgery mice were monitored for recovery until complete wakening.

[20] = tested on: U251 human glioma cells; format: in vivo
Description: Balb, Nu/Nu male mice, from Harlan (Italy), were maintained in cages with paper filter cover, food and bedding sterilized and water acidified. 2.5×10^6 U251 human glioma cells (from the American Type Culture Collection) were injected subcutaneously in athymic mice. […] Tumor growth and body weight were measured every 3 days. Tumor growth was assessed by caliper. The two diameters were recorded and the tumor weight was calculated according the following formula: length (mm)×width^2/2. Toxicity was evaluated on the basis of body weight reduction.

[21] = tested on: U251 cells; test: Mode of action by Western blot analysis; format: cell-based, human; settings: U251 cells treated for 24 hours, 1 and 3 μM, FIG. 1
Description: as §1

[22] = tested on: all the tested glioma cells; test: Inhibition of cell proliferation, summary over cell lines; format: cell-based; settings: 72 hours, read-out: IC50 (inhibit proliferation), range over cell lines
Description: as §2, §4

[23] = tested on: all the tested glioma cells; test: Acridine orange staining to evaluate autophagy, summary over cell lines; format: cell-based
Description: as §2, §5

[24] = tested on: U251; test: Acridine orange staining to evaluate autophagy (FACS); format: cell-based, human; settings: U251, 3 μM
Description: as §2, §5

**Q.** Which results are given for `CNC(=O)c1nn(C)c2c1C(C)(C)Cc1cnc(Nc3ccc(N4CCN(C)CC4)cc3)nc1-2` [compound of formula (I), 8-[4-(4-methyl-piperazin-1-yl)-phenylamino]-1,4,4-trimethyl-4,5-dihydro-1H-pyrazolo[4,3-h]quinazoline-3-carboxylic acid methylamide]?
**A.** cell cycle related markers [1]: decrease; phosphorylation of TRKA receptor [2]: Inhibition; phosphorylation of downstream proteins, both in the MAPK and in AKT pathway [2]: Inhibition; Kp ([3]; Han Wistar, brain/plasma, oral 60 mg/kg for 6 days, assuming a density equal to 1, read-out: brain levels times higher than plasma levels): 6.1 to 9.6; concentration at 2 h ([3]; Han Wistar, plasma, oral 60 mg/kg for 6 consecutive days, day 6, 2 hours post-dosing): 9.8 µM; concentration at 6 h ([3]; Han Wistar, plasma, oral 60 mg/kg for 6 consecutive days, day 6, 6 hours post-dosing): 8.4 µM; Brain levels ([3]; oral 60 mg/kg for 6 consecutive days, day 6, 2 hours post-dosing): 88.9 nmoles/gr of tissue; Brain levels ([3]; oral 60 mg/kg for 6 consecutive days, day 6, 6 hours post-dosing): 69.4 nmoles/gr of tissue; % BrdU inhib [4]: 74%; IC50 [5]: 2800 nM; IC50 [6]: 1600 nM; IC50 [7]: 2500 nM; IC50 [8]: 1400 nM; IC50 [9]: 5400 nM; % BrdU inhib [10]: 92%; % BrdU inhib [11]: 78%; % BrdU inhib [12]: 39%; % BrdU inhib [13]: 74%; Brain (total radioactivity) ([14]; 2 h): 4.6 μg eq/g; Cerebellum (total radioactivity) ([14]; 2 h): 4.4 μg eq/g; Plasma (total radioactivity) ([14]; 2 h): 1.43 μg eq/g; Brain (total radioactivity) ([14]; 6 h): 1.4 μg eq/g; Cerebellum (total radioactivity) ([14]; 6 h): 1.5 μg eq/g; Plasma (total radioactivity) ([14]; 6 h): 0.89 μg eq/g; Brain (total radioactivity) ([14]; 24 h): 0.4 μg eq/g; Cerebellum (total radioactivity) ([14]; 24 h): 0.4 μg eq/g; Plasma (total radioactivity) ([14]; 24 h): 0.14 μg eq/g; Autophagy % [15]: 50 (3 μM) %; Autophagy % [16]: 70 (3 μM) %; Autophagy % [17]: 35 (6 μM) %; Autophagy % [18]: 68 (3 μM) %; increase in the survival time in comparison to vehicle-treated control mice [19]: 30%; Max tumor growth inhibition (%) ([20]; U251 subcutaneous xenograft, oral 40 mg/kg BID for 10 consecutive days): 80%; Toxicity ([20]; male, Balb Nu/Nu, mouse, in vivo, po, 40 mg/kg, 10 days): 0/8; Rb phosphorylation [21]: strong inhibition; cdc6 expression [21]: strong inhibition; cyclin A expression [21]: strong inhibition; cyclin B1 expression [21]: strong inhibition; IC50 [22]: 1400 to 5400 nM; induce autophagy, % of the cells, range over cell lines [23]: 36-70%; Autophagy % [24]: 58 (3 μM) %
